17 compounds from patent US20250346600A1, “TRICYCLIC DERIVATIVES AND RELATED USES” (MOMA Therapeutics, Inc., priority 2023, published 2025) can be followed below.

Where two headings read alike, the source gives them in different places.

For experiment [1], the target named is T1, Full length WRN protein (aa 2-1432) (Homo sapiens (Human), UniProt Q14191). Put plainly: WRN ATPase ADP-Glo biochemical assay, Assay Format B (100 μM ATP). Conditions: 0.25 nM WRN, 100 nM C6.18 ssDNA, 60 min preincubation, read-out: ATPase ADPGlo AC50 (uM)- Assay Format B. In general terms: ADP-Glo turns the ADP formed in a reaction into a luminescent signal.

The target in experiment [2] is T1, Full length WRN protein (aa 2-1432). As to the kind of experiment: WRN ATPase ADP-Glo biochemical assay, Assay Format A (10 μM ATP). Conditions: 0.25 nM WRN, 100 nM C6.18 ssDNA, 30 min preincubation, read-out: ATPase ADPGlo AC50 (uM)- Assay Format A. In a few lines:
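ADP-Glo luminescence measured hydrolysis of ATP by purified, baculovirus-expressed N-terminally tagged full-length WRN. Enzyme (0.5 nM) was preincubated 30 min with compound, then 200 nM ssDNA C6.18 plus 20 μM ATP were added (pre-mix levels) for 30 min at RT. IC50s come from four-parameter fits, geometric mean of at least two trials.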

Another experiment has as its system HCT116 cells. Put plainly: HCT116 (MSI) 7 day viability, CellTiter Glo. The class given is cell-based. The note with it: 7 days, read-out: HCT116 (MSI) Viability 7 Day Abs AC50. The procedure, abridged: (§1)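 For each line, compound dilution series (3-fold, 10 points) met a defined seeding density—HCT116 50, HT29 500 cells/well—followed by 7 days at 37 °C. Luminescent ATP signal, background-corrected with no-cell wells, gave four-parameter logistic IC50s.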
For orientation: Cellular ATP, detected with luciferase, serves as a proxy for viable cell number.

In a further experiment the test system is HT29 cells. As to the kind of experiment: HT29 (MSS) 7 day viability, CellTiter Glo. The note with it: 7 days, read-out: HT29 (MSS) Viability 7 Day CTGAbs AC50. Format: cell-based. The procedure, abridged:
as §1

T1 sequence (Q14191 2-1432): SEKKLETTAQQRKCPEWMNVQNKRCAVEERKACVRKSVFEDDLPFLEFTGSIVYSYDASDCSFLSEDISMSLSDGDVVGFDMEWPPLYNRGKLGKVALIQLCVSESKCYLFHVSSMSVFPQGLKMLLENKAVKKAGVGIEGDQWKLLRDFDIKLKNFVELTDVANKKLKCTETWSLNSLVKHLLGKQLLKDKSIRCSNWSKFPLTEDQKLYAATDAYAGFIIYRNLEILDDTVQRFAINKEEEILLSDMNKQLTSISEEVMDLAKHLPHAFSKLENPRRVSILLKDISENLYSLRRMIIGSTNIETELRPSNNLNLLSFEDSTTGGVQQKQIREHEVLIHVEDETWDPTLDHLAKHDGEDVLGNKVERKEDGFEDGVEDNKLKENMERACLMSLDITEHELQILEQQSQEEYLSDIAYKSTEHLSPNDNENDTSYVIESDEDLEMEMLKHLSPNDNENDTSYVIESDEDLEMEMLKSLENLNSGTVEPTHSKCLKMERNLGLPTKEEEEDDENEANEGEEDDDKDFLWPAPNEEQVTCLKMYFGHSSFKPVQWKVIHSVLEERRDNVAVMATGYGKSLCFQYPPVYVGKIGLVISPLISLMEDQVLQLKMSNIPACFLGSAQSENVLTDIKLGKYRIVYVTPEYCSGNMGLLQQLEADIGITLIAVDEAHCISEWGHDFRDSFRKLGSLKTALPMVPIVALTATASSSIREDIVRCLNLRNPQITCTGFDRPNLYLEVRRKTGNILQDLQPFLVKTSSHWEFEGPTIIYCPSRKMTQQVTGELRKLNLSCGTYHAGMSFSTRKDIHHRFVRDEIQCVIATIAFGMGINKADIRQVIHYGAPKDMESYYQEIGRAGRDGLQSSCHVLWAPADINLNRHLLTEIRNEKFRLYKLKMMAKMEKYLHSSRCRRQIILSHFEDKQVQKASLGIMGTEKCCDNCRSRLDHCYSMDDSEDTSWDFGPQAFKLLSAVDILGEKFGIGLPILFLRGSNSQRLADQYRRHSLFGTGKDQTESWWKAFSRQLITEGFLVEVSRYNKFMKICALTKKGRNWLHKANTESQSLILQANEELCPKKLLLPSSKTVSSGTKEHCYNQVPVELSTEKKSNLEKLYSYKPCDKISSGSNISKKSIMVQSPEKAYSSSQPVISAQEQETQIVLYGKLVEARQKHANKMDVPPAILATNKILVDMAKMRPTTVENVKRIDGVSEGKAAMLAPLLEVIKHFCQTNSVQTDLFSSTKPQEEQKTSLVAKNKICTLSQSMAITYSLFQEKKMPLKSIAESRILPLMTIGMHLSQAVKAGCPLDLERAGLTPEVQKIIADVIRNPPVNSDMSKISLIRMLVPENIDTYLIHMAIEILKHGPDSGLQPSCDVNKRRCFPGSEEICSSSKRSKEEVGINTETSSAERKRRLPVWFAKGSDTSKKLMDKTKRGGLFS

One may read the AC50 as the concentration at which the activity in the assay is half-maximal. With `C=CC(=O)N1CCc2nn(-c3ccc(C(C)C)cc3)c3c2C(C1)N(C(=O)c1ccc(Br)c(-c2cc[nH]n2)c1)CC3` (centres unmarked) [Compound 106, 1-(5-(4-bromo-3-(1H-pyrazol-3-yl)benzoyl)-2-(4-isopropylphenyl)-2,3,4,5,5a,6,8,9-octahydro-7H-1,2,5,7-tetraazabenzo[cd]azulen-7-yl)prop-2-en-1-one], the AC50 in experiment [1] is > 0.055 µM; in experiment [2] it was 0.0015 to 0.005 µM; in the experiment with HCT116 cells (Homo sapiens, HCT-116, 168 h) it was 250 to 500 nM; in the experiment with HT29 cells (Homo sapiens, HT-29, 168 h), > 3000 nM.
The corresponding values for `C=CC(=O)N1CCc2nn(-c3ccc(C4CCC4)cc3O)c3c2C(C1)N(C(=O)c1ccc(OC(F)(F)F)cc1)CC3` (centres unmarked) [Compound 107, 1-(2-(4-cyclobutyl-2-hydroxyphenyl)-5-(4-(trifluoromethoxy)benzoyl)-2,3,4,5,5a,6,8,9-octahydro-7H-1,2,5,7-tetraazabenzo[cd]azulen-7-yl)prop-2-en-1-one] are 0.015 to 0.055 µM, 0.005 to 0.015 µM, 100 to 250 nM and > 3000 nM.
As for `C=CC(=O)N1CCc2nn(-c3ccc(C4CC4)cc3)c3c2C(C1)N(C(=O)c1ccc(C(F)(F)F)nc1O)CC3` (centres unmarked) [Compound 109, 1-(2-(4-cyclopropylphenyl)-5-(2-hydroxy-6-(trifluoromethyl)nicotinoyl)-2,3,4,5,5a,6,8,9-octahydro-7H-1,2,5,7-tetraazabenzo[cd]azulen-7-yl)prop-2-en-1-one], the AC50 in experiment [1] is 0.015 to 0.055 µM; in experiment [2] it was 0.005 to 0.015 µM; in the experiment with HCT116 cells (Homo sapiens, HCT-116, 168 h), 250 to 500 nM; with HT29 cells (Homo sapiens, HT-29, 168 h) it was > 3000 nM.
As for `C=CC(=O)N1CCc2nn(-c3ccc(C4CC4)cc3)c3c2C(C1)N(C(=O)c1cnc2c(C)nn(C)c2c1)CC3` (centres unmarked) [Compound 110, 1-(2-(4-cyclopropylphenyl)-5-(1,3-dimethyl-1H-pyrazolo[4,3-b]pyridine-6-carbonyl)-2,3,4,5,5a,6,8,9-octahydro-7H-1,2,5,7-tetraazabenzo[cd]azulen-7-yl)prop-2-en-1-one], the AC50 is > 0.055 µM in experiment [1]; 0.005 to 0.015 µM in experiment [2]; 100 to 250 nM in the experiment on HCT116 cells (Homo sapiens, HCT-116, 168 h); > 3000 nM in the experiment on HT29 cells (Homo sapiens, HT-29, 168 h).
On the same counts, the results for `C=CC(=O)N1CCc2nn(-c3ccc(C4CC4)cc3)c3c2C(C1)N(C(=O)c1cnc(C(F)(F)F)c(C#N)c1)CC3` (centres unmarked) [Compound 112, 5-(7-acryloyl-2-(4-cyclopropylphenyl)-3,4,5,5a,6,7,8,9-octahydro-2H-1,2,5,7-tetraazabenzo[cd]azulene-5-carbonyl)-2-(trifluoromethyl)nicotino nitrile] are > 0.055 µM, 0.005 to 0.015 µM, 100 to 250 nM and > 3000 nM.
The corresponding values for `C=CC(=O)N1CCc2nn(-c3ccc(C4CC4)cc3)c3c2C(C1)N(C(=O)c1ccc(Br)nc1C)CC3` (centres unmarked) [Compound 114, 1-(5-(6-bromo-2-methylnicotinoyl)-2-(4-cyclopropylphenyl)-2,3,4,5,5a,6,8,9-octahydro-7H-1,2,5,7-tetraazabenzo[cd]azulen-7-yl)prop-2-en-1-one] are > 0.055 µM, 0.005 to 0.015 µM, 250 to 500 nM and > 3000 nM.
For the compound `C=CC(=O)N1CCc2nn(-c3ccc(C4CC4)cc3)c3c2C(C1)N(C(=O)c1ccc(Br)nc1N)CC3` (centres unmarked) [Compound 117, 1-(5-(2-amino-6-bromonicotinoyl)-2-(4-cyclopropylphenyl)-2,3,4,5,5a,6,8,9-octahydro-7H-1,2,5,7-tetraazabenzo[cd]azulen-7-yl)prop-2-en-1-one], the concentration at half-maximal activity (AC50) is 0.005 to 0.015 µM in experiment [1]; 0.0015 to 0.005 µM in experiment [2]; 1 to 100 nM in the experiment on HCT116 cells (Homo sapiens, HCT-116, 168 h); > 3000 nM in the experiment with HT29 cells (Homo sapiens, HT-29, 168 h).
The corresponding values for `C=CC(=O)N1CCc2nn(-c3ccc(C4CC4)cc3)c3c2C(C1)N(C(=O)c1cnc(C(F)(F)F)cc1N)CC3` (centres unmarked) [Compound 128, 1-(5-(4-amino-6-(trifluoromethyl)nicotinoyl)-2-(4-cyclopropylphenyl)-2,3,4,5,5a,6,8,9-octahydro-7H-1,2,5,7-tetraazabenzo[cd]azulen-7-yl)prop-2-en-1-one] are 0.005 to 0.015 µM, < 0.0015 µM, 1 to 100 nM and > 3000 nM.
The corresponding values for `C=CC(=O)N1CC(OC2CC2)c2nn(-c3ccc(C4CCC4)cc3)c3c2C(C1)N(C(=O)c1cnc(C(F)(F)F)cc1N)CC3` (centres unmarked) [Compound 129, 1-(5-(4-amino-6-(trifluoromethyl)nicotinoyl)-2-(4-cyclobutylphenyl)-9-cyclopropoxy-2,3,4,5,5a,6,8,9-octahydro-7H-1,2,5,7-tetraazabenzo[cd]azulen-7-yl)prop-2-en-1-one] are 0.0015 to 0.005 µM, < 0.0015 µM, 1 to 100 nM and 1000 to 3000 nM.
On to `C=CC(=O)N1CC(C)c2nn(-c3ccc(C4CCC4)cc3O)c3c2C(C1)N(C(=O)c1cnc(C(F)(F)F)cc1N)CC3` (centres unmarked) [Compound 130, 1-(5-(4-amino-6-(trifluoromethyl)nicotinoyl)-2-(4-cyclobutyl-2-hydroxyphenyl)-9-methyl-2,3,4,5,5a,6,8,9-octahydro-7H-1,2,5,7-tetraazabenzo[cd]azulen-7-yl)prop-2-en-1-one], for which the AC50 in experiment [1] is 0.005 to 0.015 µM; in experiment [2] it was < 0.0015 µM; in the experiment on HCT116 cells (Homo sapiens, HCT-116, 168 h), 1 to 100 nM; in the experiment with HT29 cells (Homo sapiens, HT-29, 168 h) it was > 3000 nM.
On to `C=CC(=O)N1CCc2nn(-c3ccc(C4CC4)cc3)c3c2C(C1)N(C(=O)c1ccc(Br)c2[nH]nc(N)c12)CC3` (centres unmarked) [Compound 131, 1-(5-(3-amino-7-bromo-1H-indazole-4-carbonyl)-2-(4-cyclopropylphenyl)-2,3,4,5,5a,6,8,9-octahydro-7H-1,2,5,7-tetraazabenzo[cd]azulen-7-yl)prop-2-en-1-one], for which the AC50 in experiment [1] is 0.005 to 0.015 µM; in experiment [2] it was < 0.0015 µM; in the experiment with HCT116 cells (Homo sapiens, HCT-116, 168 h) it was 1 to 100 nM; in the experiment with HT29 cells (Homo sapiens, HT-29, 168 h), > 3000 nM.
The corresponding values for `C=CC(=O)N1CCc2nn(-c3ccc(C45CC(C4)C5)cc3)c3c2C(C1)N(C(=O)c1cnc(C(F)(F)F)cc1N)CC3` (centres unmarked) [Compound 133, 1-(5-(4-amino-6-(trifluoromethyl)nicotinoyl)-2-(4-(bicyclo[1.1.1]pentan-1-yl)phenyl)-2,3,4,5,5a,6,8,9-octahydro-7H-1,2,5,7-tetraazabenzo[cd]azulen-7-yl)prop-2-en-1-one] are 0.005 to 0.015 µM, < 0.0015 µM, 1 to 100 nM and > 3000 nM.
Turning to `C=CC(=O)N1CCc2nn(-c3ccc(C4CCC4)cc3O)c3c2C(C1)N(C(=O)c1cnc(C(F)(F)F)c(F)c1N)CC3` (centres unmarked) [Compound 134, 1-(5-(4-amino-5-fluoro-6-(trifluoromethyl)nicotinoyl)-2-(4-cyclobutyl-2-hydroxyphenyl)-2,3,4,5,5a,6,8,9-octahydro-7H-1,2,5,7-tetraazabenzo[cd]azulen-7-yl)prop-2-en-1-one], the AC50 was 0.0015 to 0.005 µM in experiment [1]; < 0.0015 µM in experiment [2]; 1 to 100 nM in the experiment with HCT116 cells (Homo sapiens, HCT-116, 168 h); > 3000 nM in the experiment on HT29 cells (Homo sapiens, HT-29, 168 h).
For `C=CC(=O)N1CC(C)c2nn(-c3ccc(C4CCC4)cc3O)c3c2C(C1)N(C(=O)c1cnc(C(F)(F)F)cc1N)CC3` (centres unmarked) [Compound 135, 1-(5-(4-amino-6-(trifluoromethyl)nicotinoyl)-2-(4-cyclobutyl-2-hydroxyphenyl)-9-methyl-2,3,4,5,5a,6,8,9-octahydro-7H-1,2,5,7-tetraazabenzo[cd]azulen-7-yl)prop-2-en-1-one], the AC50 in experiment [1] is 0.005 to 0.015 µM; in experiment [2], < 0.0015 µM; in the experiment on HCT116 cells, 1 to 100 nM; with HT29 cells it was > 3000 nM.
Consider `C=CC(=O)N1CCc2nn(-c3ccc(C(F)(F)F)nc3N)c3c2C(C1)N(C(=O)c1ccc(Br)c2[nH]c(C(F)F)nc12)CC3` (centres unmarked) [Compound 136, 1-(2-(2-amino-6-(trifluoromethyl)pyridin-3-yl)-5-(7-bromo-2-(difluoromethyl)-1H-benzo[d]imidazole-4-carbonyl)-2,3,4,5,5a,6,8,9-octahydro-7H-1,2,5,7-tetraazabenzo[cd]azulen-7-yl)prop-2-en-1-one], for which the AC50 in experiment [1] is 0.015 to 0.055 µM; in experiment [2], 0.0015 to 0.005 µM; in the experiment on HCT116 cells (Homo sapiens, HCT-116, 168 h), 100 to 250 nM; in the experiment on HT29 cells (Homo sapiens, HT-29, 168 h), > 3000 nM.
In the case of `C=CC(=O)N1CCc2nn(-c3ccc(C4CCC4)cc3O)c3c2C(C1)N(C(=O)c1cnc(C(F)(F)F)cc1N)CC3` (centres unmarked) [Compound 138, 1-(5-(4-amino-6-(trifluoromethyl)nicotinoyl)-2-(4-cyclobutyl-2-hydroxyphenyl)-2,3,4,5,5a,6,8,9-octahydro-7H-1,2,5,7-tetraazabenzo[cd]azulen-7-yl)prop-2-en-1-one], the AC50 in experiment [1] was 0.005 to 0.015 µM; in experiment [2] it was < 0.0015 µM; in the experiment with HCT116 cells (Homo sapiens, HCT-116, 168 h) it was 1 to 100 nM; in the experiment with HT29 cells (Homo sapiens, HT-29, 168 h), > 3000 nM.
The corresponding values for `C=CC(=O)N1CCc2nn(-c3ccc(C4CCC4)c(F)c3O)c3c2C(C1)N(C(=O)c1cnc(C(F)(F)F)cc1N)CC3` (centres unmarked) [Compound 139, 1-(5-(4-amino-6-(trifluoromethyl)nicotinoyl)-2-(4-cyclobutyl-3-fluoro-2-hydroxyphenyl)-2,3,4,5,5a,6,8,9-octahydro-7H-1,2,5,7-tetraazabenzo[cd]azulen-7-yl)prop-2-en-1-one] are 0.005 to 0.015 µM, < 0.0015 µM, 1 to 100 nM and > 3000 nM.
